According to patent publication US5958983A, “Polyaromatic antiviral compositions” (Pharmacia & Upjohn Company, priority 1998, dated 1999):

Assays:
HSV-1 = test: Inhibition of HSV-1 viral replication (virus yield reduction assay, Vero cells); type: cell-based, herpes simplex virus type-1; conditions: 14-16 hours
Method: (§1) Compounds of the formulas II and III of the present invention are evaluated in an assay to measure the inhibition of HSV-1 viral replication in the presence of drug over a 14-16 hour period. The assay is discussed in detail by Pritchard, M. N. et al. "A Microliter Virus Yield Reduction Assay for the Evaluation of Antiviral Compounds Against Human Cytomegalovirus and Herpes Simplex Virus", J. Virol. Meth., Vol. 28, pp 101-106 (1990). Briefly, 80% confluent monolayers of Vero cells in 24 well plates are infected with low multiplicities of HSV-1 (MOI=0.001). After an absorption period of 1 hour at 37° C., the monolayers are rinsed with culture media and aliquots of compounds diluted into tissue culture media are added for 14-16 hours at 37° C. in a CO2 atmosphere. The growth media is removed and 1 ml of fresh media is added to each well and plates are placed at -70° C. After a 1-5 day storage period the plates are rapidly thawed, samples are collected on ice and titrated on fresh Vero cell monolayers. Viral plaques are stained with 0.1% crystal violet in 20% alcohol for 10 minutes and are counted. Data are calculated to reflect the percentage of inhibition at indicated concentration relative to infected, non-drug treated controls.
(§2) In the Tables, the sign "+++" refers to >90% inhibition at the indicated concentration. The sign "++" refers to >50% inhibition at the indicated concentration. The sign "+" refers to <50% inhibition at the indicated concentration. The sign "-" refers that no inhibitory activity is observed at the indicated concentration. A blank cell means the datum is not available.

HSV-2 = test: Inhibition of HSV-2 viral replication (substantially same assay as HSV-1); type: cell-based, herpes simplex virus type-2; conditions: 14-16 hours
Method: as §1
Compounds of the formulas II and III of the present invention are also evaluated in substantially the same assay as described above to measure the inhibition of HSV-2 viral replication.
as §2

VZV = test: Inhibition of VZV replication (plaque reduction, HFF cells); type: cell-based, varicella zoster virus; conditions: five days
Method: Antiviral activity against VZV are evaluated in an assay to measure the reduction of viral replication in the number viral plaques formed over five days of incubation in the presence of compounds of the present invention. Aliquots of VZV are added for 90 minutes to 24 well plates having HFF cells at 80% confluence to yield approximately 25 plaques for media treated wells. The plates are flicked and dilutions of compounds in tissue culture media at 2 time strength are added (0.5 ml per well). Immediately following the addition of drug 0.5 ml of 1.0% agarose is added to the wells and the plates are gently tapped to aid mixing. This final concentration of agarose (0.5%) is […] to solidify at 37° C. and serves as a semi solid overlay medium. Plates are undisturbed for five days. On day 5 the plates are examined microscopically for toxicity and plaques are counted using low power microscopy.
as §2

## Cc1ccc(NC(=S)Nc2ccc(Cl)cc2)cc1NC(=S)Nc1ccc(Cl)cc1 [Example 1, N,N"-(4-methyl-1,3-phenylene)bis[N'-(4-chlorophenyl)thiourea]]
HSV-1
  % Inhibition Against HSV-1 Viral Replication, 5 μm: - (no inhibitory activity is observed at the indicated concentration)
  % Inhibition Against HSV-1 Viral Replication, 30 μm: + (<50% inhibition at the indicated concentration)

## COc1ccc(NC(=O)Nc2ccc(Cl)cc2)cc1NC(=O)Nc1ccc(Cl)cc1 [Example 3, N,N"-(4-methoxy-1,3-phenylene)bis[N'-(4-chlorophenyl)urea]]
HSV-1
  % Inhibition Against HSV-1 Viral Replication, 5 μm: + (<50% inhibition at the indicated concentration)
  % Inhibition Against HSV-1 Viral Replication, 30 μm: + (<50% inhibition at the indicated concentration)

## COc1ccc(NC(=O)Nc2ccc(C)cc2)cc1NC(=O)Nc1ccc(C)cc1 [Example 4, N,N"-(4-methoxy-1,3-phenylene)bis[N'-(p-tolyl)urea]]
HSV-1
  % Inhibition Against HSV-1 Viral Replication, 5 μm: + (<50% inhibition at the indicated concentration)
  % Inhibition Against HSV-1 Viral Replication, 30 μm: + (<50% inhibition at the indicated concentration)

## COc1ccc(NC(=S)Nc2ccc(Cl)cc2)cc1NC(=S)Nc1ccc(Cl)cc1 [Example 6, N,N"-(4-methoxy-1,3-phenylene)bis[N'-(4-chlorophenyl)thiourea]]
HSV-1
  % Inhibition Against HSV-1 Viral Replication, 5 μm: - (no inhibitory activity is observed at the indicated concentration)
  % Inhibition Against HSV-1 Viral Replication, 30 μm: + (<50% inhibition at the indicated concentration)

## COc1cccc(NS(=O)(=O)c2ccc(Oc3ccc(S(=O)(=O)Nc4cccc(OC)c4)cc3)cc2)c1 [Example 9, bis[N-(3-methoxyphenyl)aminosulfonyl](oxydi-4,1-phenylene)]
HSV-1
  % Inhibition Against HSV-1 Viral Replication, 5 μm: + (<50% inhibition at the indicated concentration)
  % Inhibition Against HSV-1 Viral Replication, 30 μm: +++ (>90% inhibition at the indicated concentration)

## Cc1ccc(NS(=O)(=O)c2cccc(S(=O)(=O)Nc3ccc(C)cc3)c2)cc1 [Example 10, N,N"-(1,3-phenylene)bis[N-(p-tolyl)aminosulfonyl]]
HSV-1
  % Inhibition Against HSV-1 Viral Replication, 5 μm: + (<50% inhibition at the indicated concentration)
  % Inhibition Against HSV-1 Viral Replication, 30 μm: ++ (>50% inhibition at the indicated concentration)

## Cc1cccc(NS(=O)(=O)c2ccc(Oc3ccc(S(=O)(=O)Nc4cccc(C)c4)cc3)cc2)c1 [Example 11, bis[N-(3-methylphenyl)aminosulfonyl](oxydi-4,1-phenylene)]
HSV-1
  % Inhibition Against HSV-1 Viral Replication, 5 μm: - (no inhibitory activity is observed at the indicated concentration)
  % Inhibition Against HSV-1 Viral Replication, 30 μm: ++ (>50% inhibition at the indicated concentration)

## N=C(Nc1ccc(Cc2ccc(NC(=N)c3ccccc3)cc2)cc1)c1ccccc1 [Example 13, N,N"-(methylenedi-4,1-phenylene)bis [benzenecarboximidamide]]
HSV-1
  % Inhibition Against HSV-1 Viral Replication, 5 μm: + (<50% inhibition at the indicated concentration)
  % Inhibition Against HSV-1 Viral Replication, 30 μm: +++ (>90% inhibition at the indicated concentration)
HSV-2
  % Inhibition Against HSV-2 Viral Replication, 1 μm: + (<50% inhibition at the indicated concentration)
  % Inhibition Against HSV-2 Viral Replication, 10 μm: +++ (>90% inhibition at the indicated concentration)
VZV
  % Inhibition Against VZV Viral Replication, 2 μm: + (<50% inhibition at the indicated concentration)

## S=C(NCCc1ccccc1)Nc1ccc(Oc2ccc(NC(=S)NCCc3ccccc3)cc2)cc1 [Example 15, N,N"-(oxydi-4,1-phenylene)bis[N'-(2-phenylethyl)thiourea]]
HSV-1
  % Inhibition Against HSV-1 Viral Replication, 5 μm: + (<50% inhibition at the indicated concentration)
  % Inhibition Against HSV-1 Viral Replication, 30 μm: + (<50% inhibition at the indicated concentration)
HSV-2
  % Inhibition Against HSV-2 Viral Replication, 1 μm: + (<50% inhibition at the indicated concentration)
  % Inhibition Against HSV-2 Viral Replication, 10 μm: + (<50% inhibition at the indicated concentration)
VZV
  % Inhibition Against VZV Viral Replication, 2 μm: +++ (>90% inhibition at the indicated concentration)

## O=C(Nc1ccc(Oc2ccc(NC(=O)c3ccco3)cc2)cc1)c1ccco1 [Example 16, N,N"-(oxydi-4,1-phenylene)bis(2-furancarboxamide)]
HSV-1
  % Inhibition Against HSV-1 Viral Replication, 5 μm: + (<50% inhibition at the indicated concentration)
  % Inhibition Against HSV-1 Viral Replication, 30 μm: ++ (>50% inhibition at the indicated concentration)

## O=S(=O)(c1ccc(OCc2ccc(Cl)cc2)cc1)c1ccc(OCc2ccc(Cl)cc2)cc1 [Example 17, bis(4-chlorobenzyloxy)(sulfonyldi-4,1-phenylene)]
HSV-1
  % Inhibition Against HSV-1 Viral Replication, 5 μm: + (<50% inhibition at the indicated concentration)
  % Inhibition Against HSV-1 Viral Replication, 30 μm: ++ (>50% inhibition at the indicated concentration)
HSV-2
  % Inhibition Against HSV-2 Viral Replication, 1 μm: ++ (>50% inhibition at the indicated concentration)
  % Inhibition Against HSV-2 Viral Replication, 10 μm: ++ (>50% inhibition at the indicated concentration)
VZV
  % Inhibition Against VZV Viral Replication, 2 μm: ++ (>50% inhibition at the indicated concentration)

## O=S(=O)(c1ccc(OCc2ccc(Br)cc2)cc1)c1ccc(OCc2ccc(Br)cc2)cc1 [Example 18, bis(4-bromobenzyloxy)(sulfonyldi-4,1-phenylene)]
HSV-1
  % Inhibition Against HSV-1 Viral Replication, 5 μm: + (<50% inhibition at the indicated concentration)
  % Inhibition Against HSV-1 Viral Replication, 30 μm: ++ (>50% inhibition at the indicated concentration)
VZV; 10 μm
  % Inhibition Against VZV Viral Replication, 10 μm: +++ (>90% inhibition at the indicated concentration)

## O=S(=O)(c1ccc(OCc2ccncc2)cc1)c1ccc(OCc2ccncc2)cc1 [Example 19, bis [(4-pyridyl)methoxy](sulfonyldi-4,1-phenylene)]
HSV-1
  % Inhibition Against HSV-1 Viral Replication, 5 μm: + (<50% inhibition at the indicated concentration)
  % Inhibition Against HSV-1 Viral Replication, 30 μm: + (<50% inhibition at the indicated concentration)

## O=S(=O)(c1ccc(OCc2ccc(F)cc2)cc1)c1ccc(OCc2ccc(F)cc2)cc1 [Example 20, bis(4-fluorobenzyloxy)(sulfonyldi-4,1-phenylene)]
HSV-1
  % Inhibition Against HSV-1 Viral Replication, 5 μm: + (<50% inhibition at the indicated concentration)
  % Inhibition Against HSV-1 Viral Replication, 30 μm: ++ (>50% inhibition at the indicated concentration)

## O=[N+]([O-])c1ccc(COc2ccc(S(=O)(=O)c3ccc(O)cc3)cc2)cc1 [Example 21, hydroxy(4-nitrobenzyloxy)(sulfonyldi-4,1-phenylene)]
HSV-1
  % Inhibition Against HSV-1 Viral Replication, 5 μm: - (no inhibitory activity is observed at the indicated concentration)
  % Inhibition Against HSV-1 Viral Replication, 30 μm: ++ (>50% inhibition at the indicated concentration)

## O=S(=O)(c1ccc(O)cc1)c1ccc(OCc2ccc(Cl)cc2)cc1 [Example 22, (4-chlorobenzyloxy)hydroxy(sulfonyldi-4,1-phenylene)]
HSV-1
  % Inhibition Against HSV-1 Viral Replication, 5 μm: - (no inhibitory activity is observed at the indicated concentration)
  % Inhibition Against HSV-1 Viral Replication, 30 μm: ++ (>50% inhibition at the indicated concentration)
